The values below come from paper PMC5867622, “Microginins from a Microcystis sp. Bloom Material Collected from the Kishon Reservoir, Israel” (Marine Drugs, 2018).

Like-named read-outs stand apart in the source and are kept apart here. Square brackets hold non-standard residues; d marks the D form. Peptide text beside a SMILES is read from it. * marks the point of attachment. X13 = CN[C@H](CCCCCCC(Cl)Cl)[C@@H](O)C(=O)*; X4 = CN[C@H](CCCCCCCCl)[C@@H](O)C(=O)*; X7 = N[C@H](CCCCCCCCl)[C@@H](O)C(=O)*; NMeY = CN[C@@H](Cc1ccc(O)cc1)C(=O)O; X17 = CCCCC[C@H](N)[C@H](O)C(=O)*; NMeI = CC[CH](C)[CH](NC)C(=O)O; NMeL = CN[CH](CC(C)C)C(=O)O; X11 = CCCCCCCC(NC)C(O)C(=O)*; X5 = NC(CCCCCCCCl)C(O)C(=O)*; X16 = CCCCCC(NC)C(O)C(=O)*

The test system of one experiment is APN. The conditions noted are these: Table S1, cited from earlier work.
In experiment [1] the target is T1, porcine kidney microsomal aminopeptidase M (Sus scrofa, UniProt P15145).
T1 construct: purchased Sigma-Aldrich (St. Louis, MO, USA); host or cells: porcine kidney microsomes
T1 sequence (P15145 1-963): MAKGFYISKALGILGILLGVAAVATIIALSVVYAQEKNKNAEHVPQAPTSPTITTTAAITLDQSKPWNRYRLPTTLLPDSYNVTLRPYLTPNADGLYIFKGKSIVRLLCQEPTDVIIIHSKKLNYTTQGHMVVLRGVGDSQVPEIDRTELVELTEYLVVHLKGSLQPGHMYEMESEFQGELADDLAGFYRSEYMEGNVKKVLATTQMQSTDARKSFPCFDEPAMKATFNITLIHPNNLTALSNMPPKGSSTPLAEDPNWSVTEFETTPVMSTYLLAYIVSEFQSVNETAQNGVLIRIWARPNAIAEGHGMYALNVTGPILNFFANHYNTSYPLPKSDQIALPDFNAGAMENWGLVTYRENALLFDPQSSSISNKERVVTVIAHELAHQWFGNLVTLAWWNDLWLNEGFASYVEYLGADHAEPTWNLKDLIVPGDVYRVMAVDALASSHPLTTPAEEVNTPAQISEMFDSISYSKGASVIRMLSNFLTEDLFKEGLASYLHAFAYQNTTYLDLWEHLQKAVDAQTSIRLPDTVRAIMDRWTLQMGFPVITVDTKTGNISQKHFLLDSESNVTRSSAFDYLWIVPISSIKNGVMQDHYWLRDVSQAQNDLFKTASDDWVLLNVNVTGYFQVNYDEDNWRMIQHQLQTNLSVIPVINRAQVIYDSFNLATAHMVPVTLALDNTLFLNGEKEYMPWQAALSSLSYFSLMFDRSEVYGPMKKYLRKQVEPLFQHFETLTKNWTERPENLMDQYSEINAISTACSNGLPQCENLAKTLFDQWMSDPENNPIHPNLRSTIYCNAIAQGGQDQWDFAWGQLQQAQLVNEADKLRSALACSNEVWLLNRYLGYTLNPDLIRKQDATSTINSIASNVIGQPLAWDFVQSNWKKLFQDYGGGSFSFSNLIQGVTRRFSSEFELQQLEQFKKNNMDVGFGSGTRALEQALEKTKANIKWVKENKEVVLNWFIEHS
Description: Aminopeptidase M inhibitory assay. In kind it is biochemical. The protocol: Aminopeptidase M inhibitory activity was determined according to the procedure described by Ishida et al.. A reaction mixture composed of 20 μL of L-leucine-p-nitroanilide (2 mM in 0.1 M Tris-HCl buffer at pH 7.0), 50 μL of 0.1 M Tris-HCl buffer (pH 7.0) and 20 μL of test solution was added to each well of a 96-well microtiter plate. The plate was incubated at 37 °C for 5 min; thereafter, 10 μL of porcine kidney microsomal aminopeptidase M [EC Number 232-942-5, Sigma-Aldrich (St. Louis, MO, USA), […] in 3.5 M (NH4)2SO4] was added to each well, and the absorbance at 405 nm was measured for 30 min. The microginin samples were dissolved in DMSO at a concentration of 1 mg/mL, and the IC50 values were determined by analysis of a series of dilutions (from 45.5 μM to 0.00069 μM). A sigmoidal curve of the enzyme inhibition versus the concentration of the inhibitor was observed that was fit to a 4-parameter logistic model.

For a further experiment, the system named is cAPM. Details: method as in earlier work. Conditions: Table S1; ref 3 (Neumann et al., FEMS Microbiol. Lett. 1997); cited from earlier work.
The test system of another experiment is mAPM. The arrangement: method as in earlier work. Conditions: Table S1; ref 3 (Neumann et al., FEMS Microbiol. Lett. 1997); cited from earlier work.
A further experiment deals with ACE. Conditions: Table S1; ref 3 (Neumann et al., FEMS Microbiol. Lett. 1997); cited from earlier work.
The mark [2] stands for this setting: read-out: Activity: APM, Table S1, source 14 = this manuscript.
[3] abbreviates: read-out: IC50 in μM ± SD, Table 4, substrate L-leucine-p-nitroanilide, Tris-HCl pH 7.0, 37 °C.
The mark [4] stands for this setting: Table 4, substrate L-leucine-p-nitroanilide, Tris-HCl pH 7.0, 37 °C, read-out: IC50 in μM ± SD.
Setting [5] is: Table S1, source 14 = this manuscript, heading: Activity: APM, read-out: Activity: APM.

On to `CC(C)[C@@H](C(=O)N[C@@H](Cc1ccc(O)cc1)C(=O)O)N(C)C(=O)[C@H](C)NC(=O)[C@@H](O)[C@@H](N)CCCCCCCCl` [Microginin AL584], for which, in the experiment on APN (ref 10 (Gesner-Apter, Carmeli, Tetrahedron 2008)), the “Activity: APN (ni)” value is “ni”.
In the case of `CCCCCCCC(NC)C(O)C(=O)NC(C(=O)N1CCCC1C(=O)NC(Cc1ccc(O)cc1)C(=O)NC(Cc1ccc(O)cc1)C(=O)O)C(C)O` (centres unmarked) [Microginin FR4] (X11-TPYY-OH; configuration not given here), the IC50 was 0.0018 µM in experiment [1] (setting [2]) and 1.8 ± 0.04 µM in experiment [1] (setting [3]).
Turning to `CCC(C)C(C(=O)N1CCCC1C(=O)NC(Cc1ccc(O)cc1)C(=O)O)N(C)C(=O)C(Cc1ccc(O)cc1)NC(=O)C(O)C(N)CCCCCCCCl` (centres unmarked) [Microginin HG787] (X5-Y[NMeI]PY-OH; configuration not given here), the IC50 in the experiment on APN (ref 11 (Lifshits et al., Tetrahedron 2011)) is 7700 nM.
For `CCCCCCC[C@@H](NC)[C@@H](O)C(=O)N[C@@H](Cc1ccc(O)cc1)C(=O)N(C)[C@@H](CC(C)C)C(=O)N1CCC[C@H]1C(=O)O` [Microginin KR604], the IC50 was 7.5 ± 0.1 µM in experiment [1] (setting [4]) and 7.5 µM in experiment [1] (setting [5]).
Take `CN[C@H](CCCCCCCCl)[C@@H](O)C(=O)N[C@@H](Cc1ccc(O)cc1)C(=O)N(C)[C@@H](CC(C)C)C(=O)N1CCC[C@H]1C(=O)O` [Microginin KR638]: the IC50 came to 3.8 ± 0.3 µM in experiment [1] (setting [4]) and 3.8 µM in experiment [1] (setting [5]).
As to `CCCCCCCC(NC)C(O)C(=O)NC(Cc1ccc(O)cc1)C(=O)N(C)C(CC(C)C)C(=O)N1CCCC1C(=O)NC(Cc1ccc(O)cc1)C(=O)O` (centres unmarked) [Microginin KR767] (X11-Y[NMeL]PY-OH; configuration not given here), the IC50 in experiment [1] (setting [2]) was determined as 0.0005 µM; in experiment [1] (setting [3]), 0.5 ± 0.2 µM.
For `CC(C)C[C@@H](C(=O)N1CCC[C@H]1C(=O)N[C@@H](Cc1ccc(O)cc1)C(=O)O)N(C)C(=O)[C@H](Cc1ccc(O)cc1)NC(=O)[C@H](O)[C@H](N)CCCCCCCCl` [Microginin KR787] (X7-Y[NMeL]PY-OH), the IC50 in experiment [1] (setting [2]) was determined as 0.0057 µM; in experiment [1] (setting [3]) it was 5.7 ± 0.1 µM.
In the same order, the values of `CN[C@H](CCCCCCCCl)[C@@H](O)C(=O)N[C@@H](Cc1ccc(O)cc1)C(=O)N(C)[C@@H](CC(C)C)C(=O)N1CCC[C@H]1C(=O)N[C@@H](Cc1ccc(O)cc1)C(=O)O` [Microginin KR801] (X4-Y[NMeL]PY-OH) are 0.0001 µM and 0.1 ± 0.2 µM.
Turning to `CN[C@H](CCCCCCCCl)[C@@H](O)C(=O)N[C@@H](Cc1ccc(O)cc1)C(=O)N(C)[C@@H](CC(C)C)C(=O)N1CCC[C@H]1C(=O)N[C@@H](Cc1ccc(O)cc1)C(=O)OC` [Microginin KR815] (X4-Y[NMeL]PY-OMe), the IC50 in experiment [1] (Activity: APM, Table S1, source 14 = this manuscript) amounted to 0.072 µM; in experiment [1] (IC50 in μM ± SD, Table 4, substrate L-leucine-p-nitroanilide, Tris-HCl pH 7.0, 37 °C), 72 ± 0.1 µM.
Turning to `CN[C@H](CCCCCCC(Cl)Cl)[C@@H](O)C(=O)N[C@@H](Cc1ccc(O)cc1)C(=O)N(C)[C@@H](CC(C)C)C(=O)N1CCC[C@H]1C(=O)N[C@@H](Cc1ccc(O)cc1)C(=O)O` [Microginin KR835] (X13-Y[NMeL]PY-OH), the IC50 in experiment [1] (setting [2]) turned out to be 0.0004 µM; in experiment [1] (setting [3]) it was 0.4 ± 0.2 µM.
As to `CCCCCC(NC)C(O)C(=O)N[C@H](C(=O)N(C)[C@H](C(=O)N(C)[C@@H](Cc1ccc(O)cc1)C(=O)N[C@@H](Cc1ccc(O)cc1)C(=O)O)[C@@H](C)CC)C(C)C` (some centres unmarked) [Microginin SD755] (X16-V[NMeI][NMeY]Y-OH), the IC50 with APN (ref 7 (Resef, Carmeli, Tetrahedron 2001)) is 18500 nM.
In the case of `CCCCC[C@H](N)[C@H](O)C(=O)N[C@H](C(=O)N(C)[C@H](C(=O)N(C)[C@@H](Cc1ccc(O)cc1)C(=O)N[C@@H](Cc1ccc(O)cc1)C(=O)O)[C@@H](C)CC)C(C)C` [Nostoginin BN741] (X17-V[NMeI][NMeY]Y-OH), the IC50 in the experiment on APN (ref 8 (Ploutno, Carmeli, Tetrahedron 2002)) was 1300 nM.
Regarding Microginin FR1, the IC50 was 1300 nM with cAPM, 6 nM in the experiment on mAPM and 16000 nM with ACE.
